From patent publication US20090306074A1, “THIAZOLIDINEDIONE DERIVATIVES AS P13 KINASE INHIBITORS” (priority 2006, published 2009)
Where two headings read alike, the source gives them in different places. Each block holds one compound with its values, some of them ahead of it.

How the values were obtained:
Class I PI3-kinases = details: cited from earlier work
CK2 protein kinase = CK2 protein kinase (Homo sapiens, UniProt P68400); details: cited from earlier work
PI3Kα = molecular target: T1, PI3Kα (Homo sapiens, UniProt P42336); assay: PI3K Alpha Leadseeker SPA Assay; assay type: biochemical; details: His-p110/p85 PI3K alpha, P33-ATP, PEI-PS Leadseeker beads; read-out: IC50 against PI3Kα
T1 construct: His
Description: PI3K Alpha Leadseeker SPA Assay
Compounds of the present invention were tested according to the following assays and found as inhibitors of PI3 kinases, particularly PI3Kα. The activities (IC50) range from 1 nM to 500 μM against PI3Kα.
SPA imaging beads are microspheres containing scintillant which emit light in the red region of the visible spectrum. As a result, these beads are ideally suited to use with a CCD imager such as the Viewlux. The Leadseeker beads used in this system are polystyrene beads that have been coupled with polyethyleneimine. When added to the assay mixture, the beads absorb both the substrate (PIP2) and product (PIP3). Adsorbed P^33-PIP3 will cause an increase in signal, measured as ADUs (analog to digital units). This protocol details the use of the PEI-PS Leadseeker beads for assays using His-p110/p85 PI3K alpha.
Solid compounds are typically plated with 0.1 μl of 100% DMSO in all wells (except column 6 and 18) of a 384-well, flat bottom, low volume plate (Greiner 784075). The compounds are serially diluted (3-fold in 100% DMSO) across the plate from column 1 to column 12 and column 13 to column 24 and leave column 6 and 18 containing only DMSO to yield 11 concentrations for each test compound. […] The signal is determined using a Viewlux detector and is then imported into curve fitting software (Activity Base) for construction of concentration response curves. […]

Chain of CK2 protein kinase (P68400 whole entry): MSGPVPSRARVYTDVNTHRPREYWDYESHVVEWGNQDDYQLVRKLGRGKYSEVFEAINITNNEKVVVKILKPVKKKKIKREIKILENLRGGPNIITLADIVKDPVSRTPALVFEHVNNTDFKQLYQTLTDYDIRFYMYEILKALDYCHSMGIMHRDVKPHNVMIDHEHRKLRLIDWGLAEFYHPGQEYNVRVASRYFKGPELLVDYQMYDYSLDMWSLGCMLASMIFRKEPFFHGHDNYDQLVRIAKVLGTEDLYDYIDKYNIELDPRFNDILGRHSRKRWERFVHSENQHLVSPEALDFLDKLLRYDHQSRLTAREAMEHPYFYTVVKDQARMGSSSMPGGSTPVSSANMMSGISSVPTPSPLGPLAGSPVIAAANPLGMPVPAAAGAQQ
T1 sequence (P42336 whole entry): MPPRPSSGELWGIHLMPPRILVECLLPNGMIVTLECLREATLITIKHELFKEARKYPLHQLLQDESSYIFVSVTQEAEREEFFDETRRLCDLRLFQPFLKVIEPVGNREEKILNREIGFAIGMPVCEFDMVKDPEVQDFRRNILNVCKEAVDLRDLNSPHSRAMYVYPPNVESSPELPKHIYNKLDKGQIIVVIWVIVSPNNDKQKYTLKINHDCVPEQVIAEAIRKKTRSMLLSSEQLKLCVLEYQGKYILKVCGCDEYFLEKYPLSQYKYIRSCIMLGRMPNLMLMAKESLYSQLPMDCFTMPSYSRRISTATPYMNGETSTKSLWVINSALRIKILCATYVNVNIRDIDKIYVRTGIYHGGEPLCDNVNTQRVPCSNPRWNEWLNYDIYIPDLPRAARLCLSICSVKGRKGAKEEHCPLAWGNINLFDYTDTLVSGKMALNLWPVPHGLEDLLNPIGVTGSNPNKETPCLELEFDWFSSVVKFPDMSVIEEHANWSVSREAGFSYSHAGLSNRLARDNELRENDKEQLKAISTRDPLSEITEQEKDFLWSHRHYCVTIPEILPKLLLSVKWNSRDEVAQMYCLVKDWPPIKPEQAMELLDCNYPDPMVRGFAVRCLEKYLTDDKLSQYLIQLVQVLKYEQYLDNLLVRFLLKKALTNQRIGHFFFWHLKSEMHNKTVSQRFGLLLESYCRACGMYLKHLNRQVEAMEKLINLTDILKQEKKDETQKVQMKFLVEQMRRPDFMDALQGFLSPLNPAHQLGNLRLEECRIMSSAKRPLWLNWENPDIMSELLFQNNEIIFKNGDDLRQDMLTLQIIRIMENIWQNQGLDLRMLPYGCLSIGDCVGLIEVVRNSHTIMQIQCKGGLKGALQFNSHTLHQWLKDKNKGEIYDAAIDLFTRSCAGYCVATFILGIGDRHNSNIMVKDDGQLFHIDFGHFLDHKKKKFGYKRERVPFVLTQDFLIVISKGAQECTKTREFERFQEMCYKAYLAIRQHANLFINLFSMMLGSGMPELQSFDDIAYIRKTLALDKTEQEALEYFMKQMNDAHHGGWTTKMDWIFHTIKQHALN
T1 sequence (P27986 whole entry partner): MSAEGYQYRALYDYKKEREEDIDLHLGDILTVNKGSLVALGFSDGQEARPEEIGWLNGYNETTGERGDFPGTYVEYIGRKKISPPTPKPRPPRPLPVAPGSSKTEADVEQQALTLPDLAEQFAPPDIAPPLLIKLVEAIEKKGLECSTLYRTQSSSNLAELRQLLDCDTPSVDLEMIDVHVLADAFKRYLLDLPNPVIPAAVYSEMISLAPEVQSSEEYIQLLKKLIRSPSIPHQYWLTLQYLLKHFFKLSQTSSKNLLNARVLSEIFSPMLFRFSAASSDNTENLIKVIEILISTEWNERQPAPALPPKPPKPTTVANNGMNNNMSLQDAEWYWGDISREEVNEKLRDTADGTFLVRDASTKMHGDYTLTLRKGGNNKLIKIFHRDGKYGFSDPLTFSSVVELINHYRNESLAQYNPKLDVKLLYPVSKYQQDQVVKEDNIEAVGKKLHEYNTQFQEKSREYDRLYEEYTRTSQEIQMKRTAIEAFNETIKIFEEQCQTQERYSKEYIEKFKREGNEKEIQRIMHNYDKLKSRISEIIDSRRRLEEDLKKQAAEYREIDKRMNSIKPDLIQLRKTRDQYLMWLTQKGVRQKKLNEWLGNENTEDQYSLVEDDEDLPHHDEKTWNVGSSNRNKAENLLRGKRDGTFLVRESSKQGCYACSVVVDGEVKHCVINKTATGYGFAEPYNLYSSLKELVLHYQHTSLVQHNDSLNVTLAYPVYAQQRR

Structure (SMILES): O=c1cc(N2CCOCC2)oc2c(-c3ccccc3)cccc12 [LY294002]
IC50 (Class I PI3-kinases; read-out: IC50 values against each of these PI3-kinases): 15000 to 20000 nM | IC50 (CK2 protein kinase): 5000 to 10000 nM

IC50 (PI3Kα): 1 nM
Structure (SMILES): O=C1NC(=O)/C(=C/c2ccc3nccc(-c4ccncc4)c3c2)S1 [Example 1, (5Z)-5-{[4-(4-pyridinyl)-6-quinolinyl]methylidene}-1,3-thiazolidine-2,4-dione]

Structure (SMILES): COC[C@H]1OC(=O)c2coc3c2[C@@]1(C)C1=C(C3=O)[C@@H]2CCC(=O)[C@@]2(C)C[C@H]1OC(C)=O [wortmannin]
IC50 (Class I PI3-kinases; read-out: IC50 values against each of the various Class I PI3-kinases): 1 to 10 nM
